Values joined by “and” are separate entries in the source; they are usually repeats but may differ in a detail not shown here. Equal entries are not always repeated. ± gives the expanded uncertainty stated by the source.
Legend:
[1] = xn = mol fraction of the nth substance listed; details: 100 kPa, Liquid, x1 = 1; for viscosity: Capillary tube (Ostwald / Ubbelohde) method
[2] = 100 kPa, Liquid; for viscosity: Capillary tube (Ostwald / Ubbelohde) method

Structure (SMILES)	viscosity ([1]; 283.15 K) [mPa·s]	mass density ([1]; 283.15 K) [kg/m3]	viscosity ([1]; 293.15 K) [mPa·s]	mass density ([1]; 293.15 K) [kg/m3]	viscosity ([1]; 298.15 K) [mPa·s]	mass density ([1]; 298.15 K) [kg/m3]	viscosity ([1]; 303.15 K) [mPa·s]	mass density ([1]; 303.15 K) [kg/m3]	viscosity ([1]; 313.15 K) [mPa·s]	mass density ([1]; 313.15 K) [kg/m3]	mass density ([2]; 283.15 K) [kg/m3]	viscosity ([2]; 283.15 K) [mPa·s]	mass density ([2]; 293.15 K) [kg/m3]	viscosity ([2]; 293.15 K) [mPa·s]	mass density ([2]; 298.15 K) [kg/m3]	viscosity ([2]; 298.15 K) [mPa·s]	mass density ([2]; 303.15 K) [kg/m3]	viscosity ([2]; 303.15 K)	mass density ([2]; 313.15 K) [kg/m3]	viscosity ([2]; 313.15 K) [mPa·s]
CCO [ethanol] + CCCCO	1.475 ± 0.031	798 ± 1.3	1.196 ± 0.025	789.5 ± 1.4	1.102 ± 0.023	785.2 ± 1.4	0.996 ± 0.021	781.1 ± 1.4	0.842 ± 0.018	772.3 ± 1.4	–	–	–	–	–	–	–	–	–	–
CCO [ethanol] + CCCCCCCCCCO	1.475 ± 0.031	798 ± 1.3	1.196 ± 0.025	789.5 ± 1.4	1.102 ± 0.023	785.2 ± 1.4	0.996 ± 0.021	781.1 ± 1.4	0.842 ± 0.018	772.3 ± 1.4	–	–	–	–	–	–	–	–	–	–
CCO [ethanol] + CCCCCO	1.475 ± 0.031	798 ± 1.3	1.196 ± 0.025	789.5 ± 1.4	1.102 ± 0.023	785.2 ± 1.4	0.996 ± 0.021	781.1 ± 1.4	0.842 ± 0.018	772.3 ± 1.4	–	–	–	–	–	–	–	–	–	–
CCO [ethanol] + CCCCCCCCO	1.475 ± 0.031	798 ± 1.3	1.196 ± 0.025	789.5 ± 1.4	1.102 ± 0.023	785.2 ± 1.4	0.994 ± 0.021	781.1 ± 1.4	0.842 ± 0.018	772.3 ± 1.4	–	–	–	–	–	–	–	–	–	–
CCO [ethanol] + CCCCCCCCCO	1.475 ± 0.031	798 ± 1.3	1.196 ± 0.025	789.5 ± 1.4	1.102 ± 0.023	785.2 ± 1.4	0.996 ± 0.021	781.1 ± 1.4	0.842 ± 0.018	772.3 ± 1.4	–	–	–	–	–	–	–	–	–	–
CCO [ethanol] + CCCCCCCO	1.475 ± 0.031	798 ± 1.3	1.196 ± 0.025	789.5 ± 1.4	1.102 ± 0.023	785.2 ± 1.4	0.996 ± 0.021	781.1 ± 1.4	0.842 ± 0.018	772.3 ± 1.4	–	–	–	–	–	–	–	–	–	–
CCO [ethanol]	–	–	–	–	–	–	–	–	–	–	798 ± 1.3	1.475 ± 0.031	789.5 ± 1.4	1.196 ± 0.025	785.2 ± 1.4	1.102 ± 0.023	781.1 ± 1.4	0.996 ± 0.021 mPa·s and 0.994 ± 0.021 mPa·s	772.3 ± 1.4	0.842 ± 0.018

Results, then the compound that gave them:

viscosity ([1]; 283.15 K) [mPa·s]	mass density ([1]; 283.15 K) [kg/m3]	viscosity ([1]; 293.15 K) [mPa·s]	mass density ([1]; 293.15 K) [kg/m3]	viscosity ([1]; 298.15 K) [mPa·s]	mass density ([1]; 298.15 K) [kg/m3]	viscosity ([1]; 303.15 K) [mPa·s]	mass density ([1]; 303.15 K) [kg/m3]	viscosity ([1]; 313.15 K) [mPa·s]	mass density ([1]; 313.15 K) [kg/m3]	mass density ([2]; 283.15 K) [kg/m3]	viscosity ([2]; 283.15 K) [mPa·s]	mass density ([2]; 293.15 K) [kg/m3]	viscosity ([2]; 293.15 K) [mPa·s]	mass density ([2]; 298.15 K) [kg/m3]	viscosity ([2]; 298.15 K) [mPa·s]	mass density ([2]; 303.15 K) [kg/m3]	viscosity ([2]; 303.15 K)	mass density ([2]; 313.15 K) [kg/m3]	viscosity ([2]; 313.15 K) [mPa·s]	Structure (SMILES)
–	–	–	–	–	–	–	–	–	–	832.1 ± 1.2	13.49 ± 0.28	825.2 ± 1.2	9.016 ± 0.19	821.9 ± 1.2	7.39 ± 0.15	818.4 ± 1.3	6.306 ± 0.13 mPa·s	811.4 ± 1.3	4.587 ± 0.095	CCCCCCCCO [octan-1-ol]
–	–	–	–	–	–	–	–	–	–	829.6 ± 1.3	10.15 ± 0.21	822.6 ± 1.3	7.026 ± 0.15	819.1 ± 1.3	5.947 ± 0.12	815.6 ± 1.3	5.041 ± 0.11 mPa·s	808.4 ± 1.4	3.802 ± 0.08	CCCCCCCO [heptan-1-ol]
–	–	–	–	–	–	–	–	–	–	836.6 ± 1.2	22.06 ± 0.45	829.9 ± 1.2	14.5 ± 0.3	826.5 ± 1.2	11.47 ± 0.24	823 ± 1.2	9.61 ± 0.2 mPa·s	816.2 ± 1.3	6.9 ± 0.14	CCCCCCCCCCO [decan-1-ol]
–	–	–	–	–	–	–	–	–	–	822.1 ± 1.3	5.417 ± 0.11	814.7 ± 1.3	3.974 ± 0.083	811.2 ± 1.3	3.441 ± 0.072	807.5 ± 1.3	2.99 ± 0.062 mPa·s	800 ± 1.4	2.263 ± 0.047	CCCCCO [pentan-1-ol]
–	–	–	–	–	–	–	–	–	–	817.3 ± 1.2	3.822 ± 0.079	809.6 ± 1.3	2.859 ± 0.059	805.8 ± 1.3	2.558 ± 0.053	802.1 ± 1.3	2.236 ± 0.046 mPa·s	794.3 ± 1.3	1.736 ± 0.036	CCCCO [butan-1-ol]
–	–	–	–	–	–	–	–	–	–	835 ± 1.3	17.44 ± 0.36	828.1 ± 1.3	11.63 ± 0.24	824.7 ± 1.3	9.519 ± 0.2	821.3 ± 1.3	7.806 ± 0.16 mPa·s	814.3 ± 1.4	5.668 ± 0.12	CCCCCCCCCO [nonan-1-ol]
